Experimental findings from US20140088052A1, “CHALCONE DERIVATIVES AS NRF2 ACTIVATORS” (THE JOHNS HOPKINS UNIVERSITY, priority 2011, published 2014) are described below.

Like-named read-outs stand apart in the source and are kept apart here.

Format in all cases: cell-based, human
Data set [1] concerns Beas-2B cells. Put plainly: Cell viability / cytotoxicity (MTT assay) in Beas-2B cells. The note with it: 24 h, DMSO = 100. The method, then: Concurrent with the gene expression analysis, the cytotoxicity of the chalcone derivatives was determined using the MTT assay.
Mad. Chem. 2007, 15, 2952-2962. […] Four hours before the end of incubation, the medium was removed and 100 μL of MTT (5 mg/mL in serum free medium) was added to each well. The MTT was removed after 4 h, cells were washed with PBS, and 100 μL DMSO was added to each well to dissolve the water-insoluble MTT-formazan crystals. The absorbance was recorded at 570 nm in a plate reader (Molecular Devices, Sunnyvale, Calif.).
(Tetrazolium dyes change colour on reduction, which living cells bring about.)

In data set [2] the test system is Nrf2. Nature of the data set: Expression of Nrf2-regulated genes GCLM and NQO1 by qRT-PCR in Beas-2B cells (screen). The note with it: Homo sapiens, BEAS-2B, 16 h. The method, then:
To investigate the potency of the presently disclosed chalcone derivatives to activate Nrf2, the expression of antioxidant genes, GCLM and NADPH-NQO1, two well characterized transcriptional targets of Nrf2, were measured as surrogate markers. By “marker” is meant any protein or polynucleotide having an alteration in expression level or activity that is associated with a disease, disorder, or condition. It has been previously shown that oxidants or small molecule activators of Nrf2 increase GCLM and NQO1 in cells or tissues of wild-type, but not in Nrf2-deficient mice. Osburn, W. O., et al., Genetic or pharmacologic amplification of Nrf2 signaling inhibits acute inflammatory liver injury in mice. Toxicol. Sci. 2008, 104(1), 218-227. […]
RNA was isolated and gene expression was measured after 16 h.
Total RNA was extracted from cells/tissue using Qiagen RNeasy kit (Qiagen Corporation, Valencia, Calif.) and reverse transcription was performed by using random hexamers and MultiScribe reverse transcriptase according to the manufacturer's recommendations (Applied Biosystems, Foster City, Calif., USA). Quantitative real-time RT-PCR analyses of Nrf2, NQO1, HO1, and GCLM were performed by using Assay-on-Demand primers and probe sets from Applied Biosystems. Assays were performed using the ABI 7000 Taqman system (Applied Biosystems, Foster City, Calif.). β-actin was used for normalization.
(In general: In qPCR the cycle at which signal appears reflects the starting amount.)

Data set [3] deals with Nrf2. Put plainly: Nrf2-regulated gene expression with or without N-acetyl-cysteine in Beas-2B cells. The note with it: NAC 10 mM alone, 24 h. As to the method:
Cells were harvested 24 h after the treatment and the Nrf2-driven expression of NQO1, HO-1, and GCLM was quantified. β-actin was used for normalization. Data are representative of three independent experiments. Values shown are mean±SD of triplicate wells (P≦0.05);
The activation of Nrf2 by various electrophiles and compounds that are Michael acceptors is attributed to changes in ROS production and or redox environment and or direct cysteine modification in Keap1. Nguyen, T., et al., The Nrf2-antioxidant response element signaling pathway and its activation by oxidative stress. J. Biol. Chem. 2009, 284, 13291-13295; McMahon, M., et al., Keap1 perceives stress via three sensors for the endogenous signaling molecules nitric oxide, zinc, and alkenals. Proc. Natl. Acad. Sci. U.S.A. 2010, 107, 18838-18843. Whether 2b activates Nrf2 by generating ROS or redox changes also was examined.

[4] abbreviates: DMSO = 1.0 (Table 2), read-out: Relative Fold Change GCLM.
Setting [5] is: DMSO = 1.0 (Table 2), read-out: Relative Fold Change NQO1.
Setting [6] is: DMSO = 1 (Table 3), read-out: Relative Fold Change GCLM.
The mark [7] stands for this setting: DMSO = 1 (Table 3), read-out: Relative Fold Change NQO1.

For the compound `O=C(/C=C/c1ccccc1C(F)(F)F)c1ccccc1` [Compound 2a, (E)-1-phenyl-3-(2-(trifluoromethyl)phenyl)prop-2-en-1-one], the “% Cell Viability” value in data set [1] stood at 144.8%. The fold induction at 10 µM in data set [2] (setting [4]) was found to be 5; in data set [2] (setting [5]), 5.3; in data set [2] (setting [6]), 5; in data set [2] (setting [7]), 5.3.
`COc1cccc(C(=O)/C=C/c2ccccc2C(F)(F)F)c1` [Compound 2c, (E)-1-(3-methoxyphenyl)-3-(2-(trifluoromethyl)phenyl)prop-2-en-1-one]: in data set [1], the “% Cell Viability” value is 96.6%. For the same compound, the fold induction at 10 µM in data set [2] (setting [4]) turned out to be 5.6; in data set [2] (setting [5]) it was 4.3; in data set [2] (setting [6]) it was 5.6; in data set [2] (setting [7]) it was 4.3.
As for `COc1ccc(C(=O)/C=C/c2ccccc2C(F)(F)F)cc1` [Compound 2d, (E)-1-(4-methoxyphenyl)-3-(2-(trifluoromethyl)phenyl)prop-2-en-1-one], the “% Cell Viability” value in data set [1] worked out at 96%. In addition, the fold induction at 10 µM was 5.4 in data set [2] (setting [4]), 4.6 in data set [2] (setting [5]), 5.4 in data set [2] (setting [6]) and 4.6 in data set [2] (setting [7]).
Regarding `COc1ccc(C(=O)/C=C/c2ccccc2C(F)(F)F)c(OC)c1` [Compound 2e, (E)-1-(2,4-dimethoxyphenyl)-3-(2-(trifluoromethyl)phenyl)prop-2-en-1-one], the “% Cell Viability” value in data set [1] worked out at 105%. Moreover, the fold induction at 10 µM in data set [2] (setting [4]) was found to be 5.4; in data set [2] (setting [5]), 4.5; in data set [2] (setting [6]), 5.4; in data set [2] (setting [7]) it was 4.5.
As for `COc1cccc(OC)c1C(=O)/C=C/c1ccccc1C(F)(F)F` [Compound 2f, (E)-1-(2,6-dimethoxyphenyl)-3-(2-(trifluoromethyl)phenyl)prop-2-en-1-one], the “% Cell Viability” value in data set [1] is listed as 101.1%. For the same compound, the fold induction at 10 µM in data set [2] (setting [4]) came out at 5.7; in data set [2] (setting [5]) it was 5.3; in data set [2] (setting [6]), 5.7; in data set [2] (setting [7]) it was 5.3.
For the compound `COc1cc(OC)cc(C(=O)/C=C/c2ccccc2C(F)(F)F)c1` [Compound 2i, (E)-1-(3,5-dimethoxyphenyl)-3-(2-(trifluoromethyl)phenyl)prop-2-en-1-one], the “% Cell Viability” value in data set [1] is 87.1%. The fold induction at 10 µM stood at 4 in data set [2] (setting [4]), 3.7 in data set [2] (setting [5]), 4 in data set [2] (setting [6]) and 3.7 in data set [2] (setting [7]).
For the compound `COc1ccc(C(=O)/C=C/c2ccccc2C(F)(F)F)c(OC)c1OC` [Compound 2k, (E)-1-(2,3,4-trimethoxyphenyl)-3-(2-(trifluoromethyl)phenyl)prop-2-en-1-one], in data set [1], the “% Cell Viability” value was found to be 101.6%. Moreover, the fold induction at 10 µM in data set [2] (setting [4]) is 5.4; in data set [2] (setting [5]) it was 4.1; in data set [2] (setting [6]) it was 5.4; in data set [2] (setting [7]), 4.1.
As to `COc1cc(OC)c(C(=O)/C=C/c2ccccc2C(F)(F)F)c(OC)c1` [Compound 2l, (E)-1-(2,4,6-trimethoxyphenyl)-3-(2-(trifluoromethyl)phenyl)prop-2-en-1-one], in data set [1], the “% Cell Viability” value was 145.3%. The fold induction at 10 µM in data set [2] (setting [4]) was 4.4; in data set [2] (setting [5]) it was 4.3; in data set [2] (setting [6]) it was 4.4; in data set [2] (setting [7]) it was 4.3.
Turning to `COc1cccc(C(=O)/C=C/c2cccc(C(F)(F)F)c2)c1` [Compound 3c, (E)-1-(3-methoxyphenyl)-3-(3-(trifluoromethyl)phenyl)prop-2-en-1-one], the “% Cell Viability” value in data set [1] is 95.3%. In addition, the fold induction at 10 µM stood at 4.6 in data set [2] (setting [4]), 3.5 in data set [2] (setting [5]), 4.6 in data set [2] (setting [6]) and 3.5 in data set [2] (setting [7]).
Consider `COc1cc(OC)cc(C(=O)/C=C/c2cccc(C(F)(F)F)c2)c1` [Compound 3i, (E)-1-(3,5-dimethoxyphenyl)-3-(3-(trifluoromethyl)phenyl)prop-2-en-1-one], for which, in data set [1], the “% Cell Viability” value is recorded as 108.2%. For the same compound, the fold induction at 10 µM came to 3.8 in data set [2] (setting [4]), 3.9 in data set [2] (setting [5]), 3.8 in data set [2] (setting [6]) and 3.9 in data set [2] (setting [7]).
As to `COc1ccccc1C(=O)/C=C/c1ccc(C(F)(F)F)cc1` [Compound 4b, (E)-1-(2-methoxyphenyl)-3-(4-(trifluoromethyl)phenyl)prop-2-en-1-one], the “% Cell Viability” value in data set [1] is 91%. The fold induction at 10 µM in data set [2] (setting [4]) was determined as 4.3; in data set [2] (setting [5]), 5.4; in data set [2] (setting [6]), 4.3; in data set [2] (setting [7]), 5.4.
Consider `COc1ccc(C(=O)/C=C/c2ccc(C(F)(F)F)cc2)cc1` [Compound 4d, (E)-1-(4-methoxyphenyl)-3-(4-(trifluoromethyl)phenyl)prop-2-en-1-one], for which the “% Cell Viability” value in data set [1] is 104.1%. Also, the fold induction at 10 µM amounted to 3.5 in data set [2] (setting [4]), 4.6 in data set [2] (setting [5]), 3.5 in data set [2] (setting [6]) and 4.6 in data set [2] (setting [7]).
As to `COc1ccc(C(=O)/C=C/c2ccc(C(F)(F)F)cc2)c(OC)c1` [Compound 4e, (E)-1-(2,4-dimethoxyphenyl)-3-(4-(trifluoromethyl)phenyl)prop-2-en-1-one], the “% Cell Viability” value in data set [1] is recorded as 92.6%. Besides, the fold induction at 10 µM turned out to be 5 in data set [2] (setting [4]), 4.8 in data set [2] (setting [5]), 5 in data set [2] (setting [6]) and 4.8 in data set [2] (setting [7]).
With `COc1ccc(OC)c(C(=O)/C=C/c2ccc(C(F)(F)F)cc2)c1` [Compound 4g], in data set [1], the “% Cell Viability” value is listed as 91.6%. For the same compound, the fold induction at 10 µM came to 4.1 in data set [2] (setting [4]), 4 in data set [2] (setting [5]), 4.1 in data set [2] (setting [6]) and 4 in data set [2] (setting [7]).
On to `COc1ccc(C(=O)/C=C/c2ccc(C(F)(F)F)cc2)c(OC)c1OC` [Compound 4j], for which, in data set [1], the “% Cell Viability” value came out at 100.1%. Also, the fold induction at 10 µM is 4.1 in data set [2] (setting [4]), 3.9 in data set [2] (setting [5]), 4.1 in data set [2] (setting [6]) and 3.7 in data set [2] (setting [7]).
Consider `COc1cccc(OC)c1C(=O)/C=C/c1ccccc1[N+](=O)[O-]` [Compound 5f], for which the “% Cell Viability” value in data set [1] was found to be 75.8%. In addition, the fold induction at 10 µM is 4.1 in data set [2] (setting [4]), 3.7 in data set [2] (setting [5]), 4.1 in data set [2] (setting [6]) and 3.7 in data set [2] (setting [7]).
With `COc1cc(OC)cc(C(=O)/C=C/c2ccccc2[N+](=O)[O-])c1` [Compound 5i], the “% Cell Viability” value in data set [1] is given as 90.9%. Besides, the fold induction at 10 µM is 3.4 in data set [2] (setting [4]), 4.1 in data set [2] (setting [5]), 3.4 in data set [2] (setting [6]) and 4.1 in data set [2] (setting [7]).
Take `CC(=O)N[C@@H](CS)C(=O)O` [NAC, N-acetyl-cysteine, reference compound]: the “induction of Nrf2-regulated genes, NAC alone” value in data set [3] is “no induction of Nrf2-regulated genes”.
Take `C[S+]([O-])CCCCN=C=S` (stereo not shown) [Sulforaphane, reference compound]: the “% Cell Viability” value in data set [1] amounted to 97.3%. Moreover, the fold induction at 10 µM in data set [2] (setting [4]) turned out to be 2.7; in data set [2] (setting [5]) it was 3.6; in data set [2] (setting [6]), 2.7; in data set [2] (setting [7]) it was 3.6.
